Assay [1] is described as follows: Tested for the ability to inhibit dephosphorylation of [3H]Ins(1,4,5)P3 of human erythrocyte membrane Ins(1,4,5)P3 5- phosphatase. The assay is classed as functional.
The nature of assay [2]: Inhibition of [3H]Ins(1,4,5)P3 phosphorylation by crude rat brain Ins(1,4,5)P3 3-kinase at 250 uM (Inactive). The assay is classed as functional.
The nature of assay [3]: Effective concentration required to mobilize [Ca2+] from intracellular stores using electrically permeabilised human neuroblastoma cells. The assay is classed as functional, cell-based.

Structures are written as SMILES. The source made the active and inactive calls.

In assay [1], `O=P(O)(O)OC1C(O)C(O)C(OP(=O)(O)O)C(OP(O)(O)=S)C1O` (stereo in doubt) came in with an inhibition constant (Ki) of 6.8 µM.
As for `OC1C(O)C(OP(O)(O)=S)C(OP(O)(O)=S)C(O)C1OP(O)(O)=S` (stereo in doubt), the inhibitory constant (Ki) in assay [1] worked out at 1.7 µM.
In turn, `OC1C(O)C(OP(O)(O)=S)C(OP(O)(O)=S)C(O)C1OP(O)(O)=S` (stereo in doubt; 2) registered a Ki in assay [1] of 350 µM.
`O=P(O)(O)OC1C(O)C(O)C(OP(=O)(O)O)C(OP(O)(O)=S)C1O` (stereo in doubt; 4): affinity in assay [1] was put at a Ki of 978 µM. This Ki is about 2.8-fold higher than that of the compound before.
In assay [1], `OC1C(O)C(OP(O)(O)=S)C(OP(O)(O)=S)C(O)C1OP(O)(O)=S` (stereo in doubt; 8) [listing 1 of 2 here] came in with a Ki of 0.3 µM.
For the compound `OC1C(O)C(OP(O)(O)=S)C(OP(O)(O)=S)C(O)C1OP(O)(O)=S` (stereo in doubt; 8) [listing 2 of 2 here], in assay [2], the inhibition result was “inactive”.
Compound `O=P(O)(O)O[C@@H]1[C@H](O)[C@H](O)[C@@H](OP(=O)(O)O)[C@H](OP(=O)(O)O)[C@H]1O` [INS(1,4,5)P3] returned a Ki in assay [1] of 44 µM. In addition, the inhibition entry in assay [2] is “inactive”. In addition, in assay [3], it took 0.12 µM to reach a half-maximal effect (EC50).
